# Data from ChEMBL document CHEMBL1143697, “Lemnalosides A-D, decalin-type bicyclic diterpene glycosides from the marine soft coral Lemnalia sp” (2007).
# Calls of active or inactive are those of the source. The rule behind the calls is not given here.
# Key:
# Streptomyces [1] = assay: microbe, parasite or virus in culture; format: functional; conditions: 85E, read-out: IZ
# Description: Growth inhibition of Streptomyces 85E at 20 ug/disk by hyphae formation inhibition assay
# Streptomyces [2] = assay: Growth inhibition of Streptomyces 85E at 10 ug/disk by hyphae formation inhibition assay; format: functional, organism-based
# Streptomyces [3] = assay: Growth inhibition of Streptomyces 85E by hyphae formation inhibition assay; format: functional, organism-based
# Streptomyces [4] = assay: microbe, parasite or virus in culture; conditions: 85E, read-out: IZ
# Description: Growth inhibition of Streptomyces 85E assessed as induction of bald phenotype effect at 5 ug/disk by hyphae formation inhibition assay
# Streptomyces [5] = assay: Growth inhibition of Streptomyces 85E at 2.5 ug/disk by hyphae formation inhibition assay; format: functional, organism-based
Compound,zone of inhibition at 20 µg/disc (Streptomyces [1]),Activity (Streptomyces [2]),other results
CO[C@@]12[C@H](COC(N)=O)C3=C(C(=O)C(C)=C(N)C3=O)N1C[C@@H]1N[C@@H]12 [MITOMYCIN],30 mm,–,–
CC1=C[C@H]2[C@H]([C@H](C)CCC[C@@H](C)C3OC[C@H]4O[C@@H](O3)[C@H](O)[C@@H](O)[C@@H]4O)CC=C(C)[C@H]2CC1 (stereo not given in full) [LEMNABOURSIDE],10 mm,inactive,–
CC(=O)OC[C@H]1O[C@@H](O[C@@]2(C)CC[C@@H]([C@H](C)CCC=C(C)C)[C@@H]3C=C(C)CC[C@@H]32)[C@H](O)[C@@H](O)[C@H]1O [LEMNALOSIDE A],11 mm,inactive,–
C=C(C)C(CC[C@@H](C)[C@@H]1CC[C@](C)(O[C@@H]2O[C@H](COC(C)=O)[C@H](O)[C@H](O)[C@H]2O)[C@H]2CCC(C)=C[C@@H]12)OO (stereo not given in full),–,–,Activity (Streptomyces [3]): inactive
N#CC(=C(/N)Sc1ccccc1N)/C(C#N)=C(\N)Sc1ccccc1N,15 mm,–,zone of inhibition at 5 µg/disc (Streptomyces [4]): 15 mm
CC(=O)O[C@H]1[C@@H](O)[C@@H](CO)O[C@@H](O[C@@]2(C)CC[C@@H]([C@H](C)CCC=C(C)C)[C@@H]3C=C(C)CC[C@@H]32)[C@@H]1O [LEMNALOSIDE B],18 mm,–,Activity (Streptomyces [5]): Active
